Experimental data taken from patent publication US20220105135A1, “METHODS AND COMPOSITIONS FOR THE MODULATION OF OPIOID SIGNALING IN THE TUMOR MICROENVIRONMENT” (The Broad Institute, Inc., priority 2020, published 2022).

Legend:
bacteria = system: bacteria; design: dose or concentration left out as unconfirmed; conditions: cited from earlier work
aminopeptidase A = aminopeptidase A (Homo sapiens, UniProt Q07075); conditions: cited from earlier work
pepsin = pepsin (Homo sapiens, UniProt P0DJD8); conditions: cited from earlier work
chymotrypsin = chymotrypsin (Bos taurus, UniProt P00766); conditions: cited from earlier work
elastase = conditions: cited from earlier work
fungi = conditions: at 100 pg/ml; cited from earlier work
trypsin = trypsin (Homo sapiens, UniProt P07477); conditions: cited from earlier work
leucine aminopeptidase = conditions: cited from earlier work
papain = target: T1, papain (Carica papaya, UniProt P00784); conditions: cited from earlier work
T1 sequence (P00784 134-345): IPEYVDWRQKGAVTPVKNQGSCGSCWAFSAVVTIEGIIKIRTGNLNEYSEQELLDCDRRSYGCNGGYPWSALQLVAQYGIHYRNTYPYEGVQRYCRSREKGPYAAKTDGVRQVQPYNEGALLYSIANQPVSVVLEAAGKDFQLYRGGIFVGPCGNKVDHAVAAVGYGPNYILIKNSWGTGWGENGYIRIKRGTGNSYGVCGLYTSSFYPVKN

aminopeptidase B = aminopeptidase B (Homo sapiens, UniProt Q9H4A4); conditions: cited from earlier work
thermolysin = target: T2, thermolysin (Bacillus thermoproteolyticus, UniProt P00800); conditions: cited from earlier work
T2 sequence (P00800 233-548): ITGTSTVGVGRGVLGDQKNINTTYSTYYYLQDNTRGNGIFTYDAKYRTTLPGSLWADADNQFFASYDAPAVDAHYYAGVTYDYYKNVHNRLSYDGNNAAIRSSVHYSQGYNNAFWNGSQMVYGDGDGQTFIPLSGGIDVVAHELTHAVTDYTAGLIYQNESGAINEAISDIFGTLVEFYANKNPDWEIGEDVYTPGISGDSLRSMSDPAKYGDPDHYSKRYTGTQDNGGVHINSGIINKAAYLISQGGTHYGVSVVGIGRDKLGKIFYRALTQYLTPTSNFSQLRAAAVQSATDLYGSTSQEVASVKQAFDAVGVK

[1] = intraperitoneal injection of 300 mg/kg to mice; cited from earlier work
CD8+ T cells = assay: In vitro stimulation of CD8+ T cells with MENK peptide; type: cell-based; conditions: for coinhibitory receptors / checkpoints expression on T cells: MENK stimulation
Description: FIG. 55A. […] FIG. 55B. […] FIG. 55C. […] FIG. 55D.
Applicants determined the effect of PENK-OGFR signaling on tumor growth and anti-tumor immunity.

[2] = MENK vs control, in vitro, listed as Menk

Chain of aminopeptidase B (Q9H4A4 whole entry, species assumed): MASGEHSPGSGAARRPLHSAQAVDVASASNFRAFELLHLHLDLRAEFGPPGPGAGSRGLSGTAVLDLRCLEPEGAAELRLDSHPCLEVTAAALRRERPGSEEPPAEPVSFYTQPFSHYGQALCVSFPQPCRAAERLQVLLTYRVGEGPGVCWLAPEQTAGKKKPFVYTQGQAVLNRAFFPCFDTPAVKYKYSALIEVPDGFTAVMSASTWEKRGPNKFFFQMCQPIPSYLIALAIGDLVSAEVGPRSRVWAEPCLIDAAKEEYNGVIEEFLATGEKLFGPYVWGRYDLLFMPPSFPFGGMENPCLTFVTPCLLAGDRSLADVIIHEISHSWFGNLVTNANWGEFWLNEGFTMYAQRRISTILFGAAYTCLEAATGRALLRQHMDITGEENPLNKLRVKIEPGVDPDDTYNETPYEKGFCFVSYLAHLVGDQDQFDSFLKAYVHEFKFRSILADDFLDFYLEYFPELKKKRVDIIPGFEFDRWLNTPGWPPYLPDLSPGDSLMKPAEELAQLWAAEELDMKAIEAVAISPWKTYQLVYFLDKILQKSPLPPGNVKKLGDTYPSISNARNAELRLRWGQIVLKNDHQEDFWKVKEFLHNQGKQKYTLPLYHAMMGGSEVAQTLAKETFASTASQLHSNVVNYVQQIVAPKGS
Chain of aminopeptidase A (Q07075 whole entry, species assumed): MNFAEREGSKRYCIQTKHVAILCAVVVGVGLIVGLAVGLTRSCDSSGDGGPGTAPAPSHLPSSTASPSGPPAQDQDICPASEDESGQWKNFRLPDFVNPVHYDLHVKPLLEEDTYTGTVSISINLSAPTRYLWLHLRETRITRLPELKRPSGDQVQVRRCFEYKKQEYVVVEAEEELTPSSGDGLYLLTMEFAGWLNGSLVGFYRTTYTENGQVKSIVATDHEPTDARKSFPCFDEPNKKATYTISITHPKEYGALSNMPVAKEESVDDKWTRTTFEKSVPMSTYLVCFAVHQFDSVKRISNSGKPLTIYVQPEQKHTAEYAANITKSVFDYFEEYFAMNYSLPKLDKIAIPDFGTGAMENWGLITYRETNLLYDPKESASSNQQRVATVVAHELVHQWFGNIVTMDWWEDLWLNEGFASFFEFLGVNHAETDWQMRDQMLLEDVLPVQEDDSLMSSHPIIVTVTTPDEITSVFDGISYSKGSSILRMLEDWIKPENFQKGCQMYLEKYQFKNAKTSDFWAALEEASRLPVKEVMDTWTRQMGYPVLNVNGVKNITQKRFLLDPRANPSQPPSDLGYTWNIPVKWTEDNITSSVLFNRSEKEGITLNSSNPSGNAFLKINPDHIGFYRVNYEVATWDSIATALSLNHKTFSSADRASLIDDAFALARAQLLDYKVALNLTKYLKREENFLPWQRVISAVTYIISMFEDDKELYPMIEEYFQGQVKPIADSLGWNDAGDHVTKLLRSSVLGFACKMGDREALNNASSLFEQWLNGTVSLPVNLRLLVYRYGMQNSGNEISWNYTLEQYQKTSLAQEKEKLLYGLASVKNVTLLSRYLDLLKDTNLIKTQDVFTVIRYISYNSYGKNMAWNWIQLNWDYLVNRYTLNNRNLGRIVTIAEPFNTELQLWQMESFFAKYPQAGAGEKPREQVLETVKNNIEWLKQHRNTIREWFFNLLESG
Chain of pepsin (P0DJD8 63-388): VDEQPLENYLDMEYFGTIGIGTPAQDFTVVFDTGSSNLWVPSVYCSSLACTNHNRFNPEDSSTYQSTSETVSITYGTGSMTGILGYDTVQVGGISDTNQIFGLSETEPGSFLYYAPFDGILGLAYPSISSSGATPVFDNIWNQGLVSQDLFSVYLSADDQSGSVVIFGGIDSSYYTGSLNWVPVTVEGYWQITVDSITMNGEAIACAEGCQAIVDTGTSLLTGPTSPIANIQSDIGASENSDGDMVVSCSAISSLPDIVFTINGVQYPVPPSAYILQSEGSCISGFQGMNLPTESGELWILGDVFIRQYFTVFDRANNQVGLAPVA

For `CC(C)C[C@H](NC(=O)[C@@H](O)[C@H](N)Cc1ccccc1)C(=O)O` [Bestatin, ubenimex (bestatin)], the antibacterial activity (bacteria) is given as “no antibacterial”, the “inhibition of aminopeptidase A” value (aminopeptidase A) is given as “does not show any inhibition” and the inhibition of pepsin (pepsin) is given as “does not show any inhibition”. The inhibition of chymotrypsin (chymotrypsin) was “does not show any inhibition”, the inhibition of elastase (elastase) was “does not show any inhibition” and the antifungal activity (fungi) was “no antifungal”. For the same compound, the inhibition of trypsin (trypsin) was “does not show any inhibition”, the “inhibition of leucine aminopeptidase” value (leucine aminopeptidase) was “specific inhibitor” and the inhibition of papain (papain) was “does not show any inhibition”. For the same compound, the “inhibition of aminopeptidase B” value (aminopeptidase B) was “specific inhibitor”, the inhibition of thermolysin (thermolysin) was “does not show any inhibition” and the “toxicity (death)” value [1] was “no death”.
In the case of “[Met]enkephalin (YGGFM) [MENK, enkephalin peptide produced by proteolytic cleavage of PENK]”, the “coinhibitory receptors / checkpoints expression on T cells” value (CD8+ T cells) is reported as “increases”, the “coinhibitory receptors / checkpoints expression on T cells” value (CD8+ T cells; listed as Menk) is reported as “increased expression of several checkpoints” and the CD160 (CD8+ T cells; MENK vs control, in vitro) is reported as “increased”. For the same compound, the IL-2 (CD8+ T cells; MENK vs control, in vitro) was “decreased”, the PD1 (CD8+ T cells; MENK vs control, in vitro) was “increased” and the “PD1+ TIM3+CD8+ T cells” value (CD8+ T cells; MENK vs control, in vitro) was “increased”. For the same compound, the TIM3 (CD8+ T cells; MENK vs control, in vitro) was “increased”, the proliferation (CD8+ T cells; MENK vs control, in vitro) was “decreased” and the IL-2 (CD8+ T cells; [2]) was “dampened”. For the same compound, the proliferation (CD8+ T cells; [2]) was “some reduction”.
